28 targets from the supplement of paper PMC12463676, “Small-molecule dissolution of stress granules by redox modulation benefits ALS models” (Nature Chemical Biology, 2025) can be followed below.

Compound in one assay: NC(=O)CCCCC1CCSS1 [lipoamide]
Put plainly: thermal stability z-score vs DMSO; higher = more thermally stabilized by treatment. As to conditions: HeLa, lipoamide concentration 100 µM. As to the method:
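Cellular thermal proteome profiling in HeLa cells. Cells were treated with 100 µM lipoamide for 1 h, with or without 1 mM arsenate for a further 1 h, then heated to ten temperatures (37-66.3 °C), and soluble protein was quantified by TMT mass spectrometry relative to 0.1% DMSO controls. The thermal stability score (sum of log2 fold changes minus the abundance score) was transformed to a z-score; mean of n = 3 experiments.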

Compound in the next assay: O=[As]([O-])(O)O.[K+] [potassium arsenate]
The assay is described as above. The settings on record: HeLa; arsenate concentration 1 mM. As to the method: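 Cellular thermal proteome profiling in HeLa cells treated with 1 mM arsenate for 1 h (DMSO pretreatment), heated to ten temperatures (37-66.3 °C). Soluble protein was quantified by TMT mass spectrometry relative to DMSO controls; the thermal stability score was transformed to a z-score; mean of n = 3 experiments.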

Setting [1] is: arsenate co-treatment: 1 mM arsenate 1 h.
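Also: each temperature applied for 3 min, abundance score taken as mean log2 fold change at the two lowest temperatures, z-score obtained by mean subtraction and division by SD.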

Chain of UniProt P17301 (P17301 whole entry): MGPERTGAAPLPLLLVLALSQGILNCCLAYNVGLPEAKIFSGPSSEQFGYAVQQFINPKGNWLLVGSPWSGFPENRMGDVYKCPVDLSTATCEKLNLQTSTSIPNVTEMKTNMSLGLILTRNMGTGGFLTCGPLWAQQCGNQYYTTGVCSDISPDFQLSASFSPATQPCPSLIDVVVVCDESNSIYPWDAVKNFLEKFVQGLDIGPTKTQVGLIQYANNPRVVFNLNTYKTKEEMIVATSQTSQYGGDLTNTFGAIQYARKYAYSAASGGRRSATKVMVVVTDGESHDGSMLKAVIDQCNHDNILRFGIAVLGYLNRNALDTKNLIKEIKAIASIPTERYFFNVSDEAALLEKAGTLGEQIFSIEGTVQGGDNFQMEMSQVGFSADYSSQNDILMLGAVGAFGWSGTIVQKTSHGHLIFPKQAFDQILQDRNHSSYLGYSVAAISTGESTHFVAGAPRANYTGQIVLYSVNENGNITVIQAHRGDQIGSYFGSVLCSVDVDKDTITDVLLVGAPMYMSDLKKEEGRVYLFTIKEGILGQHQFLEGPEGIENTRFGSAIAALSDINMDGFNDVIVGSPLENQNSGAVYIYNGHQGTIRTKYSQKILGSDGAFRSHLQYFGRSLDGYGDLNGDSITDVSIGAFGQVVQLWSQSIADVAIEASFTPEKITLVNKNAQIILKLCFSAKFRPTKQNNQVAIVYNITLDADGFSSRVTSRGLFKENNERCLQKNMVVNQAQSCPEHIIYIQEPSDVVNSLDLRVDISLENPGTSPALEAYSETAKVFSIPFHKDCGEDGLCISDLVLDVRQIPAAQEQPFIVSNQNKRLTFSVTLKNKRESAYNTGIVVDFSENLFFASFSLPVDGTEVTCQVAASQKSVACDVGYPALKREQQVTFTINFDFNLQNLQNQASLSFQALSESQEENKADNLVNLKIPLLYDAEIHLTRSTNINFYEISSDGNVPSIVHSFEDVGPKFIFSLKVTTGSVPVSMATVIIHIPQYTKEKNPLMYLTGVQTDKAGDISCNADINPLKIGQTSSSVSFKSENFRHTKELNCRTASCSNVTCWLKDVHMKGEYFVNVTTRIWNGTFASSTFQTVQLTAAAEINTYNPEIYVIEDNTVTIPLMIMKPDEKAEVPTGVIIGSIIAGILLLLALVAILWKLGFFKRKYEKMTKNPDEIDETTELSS
Chain of UniProt O95166 (O95166 whole entry): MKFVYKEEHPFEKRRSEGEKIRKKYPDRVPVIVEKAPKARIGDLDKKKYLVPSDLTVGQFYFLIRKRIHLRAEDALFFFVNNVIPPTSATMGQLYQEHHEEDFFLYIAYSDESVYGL
Chain of UniProt O14976 (O14976 whole entry): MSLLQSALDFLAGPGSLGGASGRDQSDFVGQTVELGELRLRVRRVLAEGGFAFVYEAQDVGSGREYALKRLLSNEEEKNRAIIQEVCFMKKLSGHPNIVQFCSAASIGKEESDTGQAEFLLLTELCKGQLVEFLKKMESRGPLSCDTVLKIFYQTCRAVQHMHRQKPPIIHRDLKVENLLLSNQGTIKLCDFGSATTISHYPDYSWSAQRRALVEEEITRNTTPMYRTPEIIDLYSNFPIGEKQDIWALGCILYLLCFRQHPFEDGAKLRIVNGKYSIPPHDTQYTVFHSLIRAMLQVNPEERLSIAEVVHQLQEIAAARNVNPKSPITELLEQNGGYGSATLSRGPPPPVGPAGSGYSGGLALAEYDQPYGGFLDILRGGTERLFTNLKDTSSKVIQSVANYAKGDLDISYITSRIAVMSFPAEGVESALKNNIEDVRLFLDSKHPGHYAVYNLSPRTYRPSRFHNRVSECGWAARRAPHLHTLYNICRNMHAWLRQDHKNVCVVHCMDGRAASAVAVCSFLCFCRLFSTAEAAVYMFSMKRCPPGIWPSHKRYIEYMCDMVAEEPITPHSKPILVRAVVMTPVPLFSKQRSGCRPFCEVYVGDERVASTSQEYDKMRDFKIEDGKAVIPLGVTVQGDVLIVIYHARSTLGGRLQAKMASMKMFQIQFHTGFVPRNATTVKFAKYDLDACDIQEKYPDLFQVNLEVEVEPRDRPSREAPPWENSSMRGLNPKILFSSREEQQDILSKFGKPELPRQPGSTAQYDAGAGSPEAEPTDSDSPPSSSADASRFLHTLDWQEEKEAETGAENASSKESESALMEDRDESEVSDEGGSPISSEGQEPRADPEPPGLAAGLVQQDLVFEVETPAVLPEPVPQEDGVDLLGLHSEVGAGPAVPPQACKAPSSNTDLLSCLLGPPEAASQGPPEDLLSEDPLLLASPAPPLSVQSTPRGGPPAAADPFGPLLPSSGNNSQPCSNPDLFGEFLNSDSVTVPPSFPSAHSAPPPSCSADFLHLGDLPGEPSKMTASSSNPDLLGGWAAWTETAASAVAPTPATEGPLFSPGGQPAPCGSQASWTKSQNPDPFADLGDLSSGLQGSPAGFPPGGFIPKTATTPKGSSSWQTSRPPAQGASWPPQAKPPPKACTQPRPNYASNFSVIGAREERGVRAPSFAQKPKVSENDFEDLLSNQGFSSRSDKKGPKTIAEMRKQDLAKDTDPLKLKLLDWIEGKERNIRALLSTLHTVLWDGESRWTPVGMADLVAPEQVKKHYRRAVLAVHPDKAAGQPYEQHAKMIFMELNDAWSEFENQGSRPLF
Chain of UniProt O00571 (O00571 whole entry, looked up): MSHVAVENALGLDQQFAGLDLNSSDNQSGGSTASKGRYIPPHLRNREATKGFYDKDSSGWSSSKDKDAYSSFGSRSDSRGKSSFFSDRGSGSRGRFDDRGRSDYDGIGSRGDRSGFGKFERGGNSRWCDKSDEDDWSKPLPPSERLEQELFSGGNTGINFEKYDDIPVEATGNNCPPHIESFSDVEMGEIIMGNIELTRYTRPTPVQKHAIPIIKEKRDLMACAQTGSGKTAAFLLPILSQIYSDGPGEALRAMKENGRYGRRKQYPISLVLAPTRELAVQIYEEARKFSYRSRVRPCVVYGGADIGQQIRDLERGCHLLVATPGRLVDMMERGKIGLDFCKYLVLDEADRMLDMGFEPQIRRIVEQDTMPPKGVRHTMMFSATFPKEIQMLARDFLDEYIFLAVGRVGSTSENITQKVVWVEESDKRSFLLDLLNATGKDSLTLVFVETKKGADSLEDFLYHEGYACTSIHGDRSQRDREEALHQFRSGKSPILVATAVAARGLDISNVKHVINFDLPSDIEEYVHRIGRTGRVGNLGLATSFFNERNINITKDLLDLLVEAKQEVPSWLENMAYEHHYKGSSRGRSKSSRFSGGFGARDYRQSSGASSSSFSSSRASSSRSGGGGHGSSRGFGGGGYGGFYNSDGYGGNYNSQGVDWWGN
Chain of UniProt P09525 (P09525 whole entry): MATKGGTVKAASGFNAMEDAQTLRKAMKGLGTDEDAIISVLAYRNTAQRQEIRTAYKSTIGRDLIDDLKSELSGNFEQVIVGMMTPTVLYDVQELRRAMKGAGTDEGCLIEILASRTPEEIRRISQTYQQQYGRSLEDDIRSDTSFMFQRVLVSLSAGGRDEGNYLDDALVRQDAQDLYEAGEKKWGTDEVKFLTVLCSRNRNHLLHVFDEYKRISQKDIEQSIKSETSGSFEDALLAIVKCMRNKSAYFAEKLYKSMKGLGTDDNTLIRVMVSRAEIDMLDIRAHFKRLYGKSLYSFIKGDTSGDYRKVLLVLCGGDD
Chain of UniProt Q15286 (Q15286 whole entry): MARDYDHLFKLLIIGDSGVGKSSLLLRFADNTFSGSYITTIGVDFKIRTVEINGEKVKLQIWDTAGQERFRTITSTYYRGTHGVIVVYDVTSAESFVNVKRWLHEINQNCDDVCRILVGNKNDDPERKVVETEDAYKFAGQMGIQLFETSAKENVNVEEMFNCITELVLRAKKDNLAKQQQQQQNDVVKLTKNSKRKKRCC
Chain of UniProt O43252 (O43252 whole entry): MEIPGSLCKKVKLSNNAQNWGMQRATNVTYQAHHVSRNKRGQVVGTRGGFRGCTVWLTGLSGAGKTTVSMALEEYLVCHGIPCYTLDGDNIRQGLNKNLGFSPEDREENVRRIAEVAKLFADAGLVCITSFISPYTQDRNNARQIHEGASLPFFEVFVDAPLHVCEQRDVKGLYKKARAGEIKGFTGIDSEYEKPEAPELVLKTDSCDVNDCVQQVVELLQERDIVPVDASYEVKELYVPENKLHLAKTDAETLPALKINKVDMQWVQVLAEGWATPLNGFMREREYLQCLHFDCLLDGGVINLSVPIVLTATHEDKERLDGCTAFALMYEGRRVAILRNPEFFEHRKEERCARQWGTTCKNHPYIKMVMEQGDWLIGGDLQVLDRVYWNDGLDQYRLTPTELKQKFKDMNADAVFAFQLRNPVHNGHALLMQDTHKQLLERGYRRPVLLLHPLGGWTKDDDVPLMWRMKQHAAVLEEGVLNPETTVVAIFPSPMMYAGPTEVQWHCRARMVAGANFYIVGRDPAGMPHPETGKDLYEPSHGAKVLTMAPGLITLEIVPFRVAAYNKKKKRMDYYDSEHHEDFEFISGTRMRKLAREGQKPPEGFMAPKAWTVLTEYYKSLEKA
Chain of UniProt O43251 (O43251 whole entry): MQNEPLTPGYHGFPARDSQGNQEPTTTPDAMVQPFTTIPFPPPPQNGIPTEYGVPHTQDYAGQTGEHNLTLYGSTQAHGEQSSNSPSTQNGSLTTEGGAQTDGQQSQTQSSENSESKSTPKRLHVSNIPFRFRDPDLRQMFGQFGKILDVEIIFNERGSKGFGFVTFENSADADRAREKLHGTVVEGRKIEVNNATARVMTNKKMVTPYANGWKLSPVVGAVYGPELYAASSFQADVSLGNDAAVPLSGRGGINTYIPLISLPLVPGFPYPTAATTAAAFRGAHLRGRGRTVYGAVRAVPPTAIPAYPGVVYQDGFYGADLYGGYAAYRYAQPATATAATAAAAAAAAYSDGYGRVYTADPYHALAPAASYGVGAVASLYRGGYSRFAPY
Chain of UniProt Q9NUP1 (Q9NUP1 whole entry): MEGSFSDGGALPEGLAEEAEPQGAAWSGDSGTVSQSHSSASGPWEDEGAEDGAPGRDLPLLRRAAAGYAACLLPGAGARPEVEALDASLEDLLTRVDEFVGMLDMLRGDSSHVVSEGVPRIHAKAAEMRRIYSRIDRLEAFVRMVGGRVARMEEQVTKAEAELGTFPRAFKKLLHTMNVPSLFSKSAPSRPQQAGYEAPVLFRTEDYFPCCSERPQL

Regarding THOP1 (UniProt P52888), the values for the thermal stability z-score in the assay with lipoamide (setting [1]), in the assay with lipoamide (arsenate co-treatment: none) and in the assay with potassium arsenate were -0.0659, -0.212 and -0.915, respectively.
On the same counts, the results for BLOC1S4 (UniProt Q9NUP1) are 1.47, 0.395 and 0.401.
For IFRD1 (UniProt O00458) the same measures were -0.177, -0.444 and 1.9.
For SETDB1 (UniProt Q15047) the same measures were -0.239, -0.253 and -0.254.
Turning to S100A6 (UniProt P06703), the thermal stability z-score with lipoamide (setting [1]) was determined as 1.78; with lipoamide (arsenate co-treatment: none), 0.967; with potassium arsenate it was 1.15.
VWA8 (UniProt A3KMH1): the thermal stability z-score with lipoamide (setting [1]) was -0.654; with lipoamide (arsenate co-treatment: none) it was -0.345; in the assay with potassium arsenate it was -0.561.
For PAPSS1 (UniProt O43252), the thermal stability z-score with lipoamide (setting [1]) is -0.0513; with lipoamide (arsenate co-treatment: none), -0.0832; in the assay with potassium arsenate, 0.0908.
For MYO1E (UniProt Q12965) the same measures were 0.918, 0.582 and -0.8.
For MVB12A (UniProt Q96EY5), the thermal stability z-score in the assay with lipoamide (setting [1]) was 0.652; with lipoamide (arsenate co-treatment: none), -0.0184; with potassium arsenate it was 0.35.
For SNX1 (UniProt Q13596) the same measures were 0.0174, -0.29 and 0.327.
For FLNB (UniProt O75369) the same measures were 0.683, 0.798 and -0.574.
Regarding MRPL30 (UniProt Q8TCC3), the thermal stability z-score in the assay with lipoamide (setting [1]) is -0.325; with lipoamide (arsenate co-treatment: none), 0.266; with potassium arsenate, 0.112.
For LARP1 (UniProt Q6PKG0), the figures for the thermal stability z-score in the assay with lipoamide (setting [1]), with lipoamide (arsenate co-treatment: none) and with potassium arsenate were 0.375, 0.88 and 1.03, respectively.
Consider ITGA2 (UniProt P17301), for which the thermal stability z-score was determined as 0.217 with lipoamide (setting [1]), 0.235 with lipoamide (arsenate co-treatment: none) and 0.278 with potassium arsenate.
In the case of NDUFS4 (UniProt O43181), the thermal stability z-score with lipoamide (setting [1]) was determined as 0.511; with lipoamide (arsenate co-treatment: none), 0.477; with potassium arsenate, 0.201.
For MINPP1 (UniProt Q9UNW1) the same measures were -3.92, -4.05 and -0.105.
On the same counts, the results for NCKAP1 (UniProt Q9Y2A7) are 0.0716, 0.602 and -0.938.
TCP11L1 (UniProt Q9NUJ3): the thermal stability z-score with lipoamide (setting [1]) was -0.328; with lipoamide (arsenate co-treatment: none), 0.00441; with potassium arsenate, 0.586.
In the case of CD47 (UniProt Q08722), the figures for the thermal stability z-score with lipoamide (setting [1]), with lipoamide (arsenate co-treatment: none) and with potassium arsenate were 2.42, 1.31 and 0.869, respectively.
In the case of VPS41 (UniProt P49754), the results for the thermal stability z-score with lipoamide (setting [1]), with lipoamide (arsenate co-treatment: none) and in the assay with potassium arsenate were -0.0442, -0.511 and -0.161, respectively.
For GAK (UniProt O14976) the same measures were 0.338, -0.0197 and 0.475.
On the same counts, the results for KCTD20 (UniProt Q7Z5Y7) are -0.132, -0.0693 and -0.0752.
On the same counts, the results for RAB35 (UniProt Q15286) are -0.564, 0.0595 and -0.435.
Take CRYZL1 (UniProt O95825): the thermal stability z-score with lipoamide (setting [1]) was -0.0756; with lipoamide (arsenate co-treatment: none) it was -0.692; with potassium arsenate, -0.358.
On the same counts, the results for GABARAP (UniProt O95166) are -0.21, -0.417 and -0.223.
With ANXA4 (UniProt P09525), the thermal stability z-score came to 1.42 in the assay with lipoamide (setting [1]), 1.61 in the assay with lipoamide (arsenate co-treatment: none) and 0.225 with potassium arsenate.
RBFOX2 (UniProt O43251): the values for the thermal stability z-score with lipoamide (setting [1]), with lipoamide (arsenate co-treatment: none) and with potassium arsenate were -0.112, 0.314 and 0.171, respectively.
For DDX3X (UniProt O00571) the same measures were -0.829, -0.504 and -2.07.
